Measurements: US8883137B2, “Compositions comprising selenium-rich yeast and yeast beta-glucan” (Angel Yeast Co., Ltd., priority 2008, dated 2014)

Assays:
[1] = system: glutathione peroxidase (GSH-PX); test: Anti-oxidation experiment: GSH-Px activity; assay type: in vivo, human
Protocol: (§1) During the experiment, all the volunteers kept original living and dietary habits. […] Subsequently, the content of lipid peroxide (malondialdehyde (MDA)), superoxide dismutase (SOD) activity and glutathione peroxidase (GSH-PX) activity of the volunteers were measured. The measurement method was the same as the method for evaluating health food.

spleen cells = test: Immunity experiment: antibody cell detection (plaque forming cells), humoral immunity function; assay type: in vivo; details: male BALB/c mice, gavage daily, three months; Example 1 0.50, selenium-enriched yeast 0.05, yeast beta-glucan 0.15, Vitamin C 0.20, Vitamin E 0.10 g/kg·bw
Protocol: (§2) 60 male BALB/c mice of clean grade with body weight 18-22 g were purchased from Shanghai Xipu'er-Bikai Experimental Animal Co., Ltd. (Add: […] Physiological saline was administered to the blank group. Three months later, a plurality of immune index of mice comprising thymus weight/body weight ratio, humoral immunity function (antibody index) and cellular immune function (NK cell activity) were measured. The measurement method was the same as the method for evaluating health food.

NK cell = test: Immunity experiment: NK cell activity, cellular immune function; assay type: in vivo; details: male BALB/c mice, gavage daily, three months; Example 1 0.50, selenium-enriched yeast 0.05, yeast beta-glucan 0.15, Vitamin C 0.20, Vitamin E 0.10 g/kg·bw
Protocol: as §2

[2] = system: superoxide dismutase (SOD); test: Anti-oxidation experiment: SOD activity; assay type: in vivo, human
Protocol: as §1

[3] = system: lipid peroxide (malondialdehyde (MDA)); test: Anti-oxidation experiment: content of lipid peroxide (MDA); assay type: in vivo, human
Protocol: as §1

BALB/c mice = test: Immunity experiment: thymus weight/body weight ratio; assay type: in vivo; details: male BALB/c mice, gavage daily, three months; Example 1 0.50, selenium-enriched yeast 0.05, yeast beta-glucan 0.15, Vitamin C 0.20, Vitamin E 0.10 g/kg·bw
Protocol: as §2

[4] = volunteers 45-65 years, before administration (baseline)
[5] = volunteers, after administration two times a day for three months, Example 2 500 mg, selenium-enriched yeast 150 mg, yeast beta-glucan 450 mg, Vitamin C 2.5 mg, Vitamin E 2.5 mg each time

In the case of O=C1O[C@H]([C@@H](O)CO)C(O)=C1O [Vitamin C], the GSH-Px activity [1, 4] is reported as 121.6 ± 15.67 U/mL, the GSH-Px activity [1, 5] is reported as 123.7 ± 15.33 U/mL and the “Antibody cell detection Quantity of plaque forming cells” value (spleen cells) is reported as 87 ± 41 /106 spleen cells. The NK cell activity (NK cell) was 18.18 ± 4.14%, the SOD activity [2, 4] was 13335.1 ± 1466.6 U/gHb and the SOD activity [2, 5] was 13345.5 ± 1472.7 U/gHb. The MDA content [3, 4] was 5.77 ± 0.65 nmol/mL, the MDA content [3, 5] was 5.75 ± 0.60 nmol/mL and the “Thymus weight/body weight ratio” value (BALB/c mice) was 1.80 ± 0.57 mg/g.
Vitamin E was tested, and the GSH-Px activity [1, 4] was 120.8 ± 13.12 U/mL, the GSH-Px activity [1, 5] was 121.9 ± 9.78 U/mL and the “Antibody cell detection Quantity of plaque forming cells” value (spleen cells) was 96 ± 21 /106 spleen cells. The NK cell activity (NK cell) was 18.02 ± 5.31%, the SOD activity [2, 4] was 13297.0 ± 2193.7 U/gHb and the SOD activity [2, 5] was 13375.6 ± 2014.7 U/gHb. The MDA content [3, 4] was 5.74 ± 0.55 nmol/mL, the MDA content [3, 5] was 5.72 ± 0.65 nmol/mL and the “Thymus weight/body weight ratio” value (BALB/c mice) was 1.90 ± 0.33 mg/g.
